The values below are quoted from earlier work in US20130252988A1, “COMPOSITIONS AND METHODS FOR TREATING MYELOFIBROSIS” (TARGEGEN, INC., priority 2010, published 2013).

Structures are written as SMILES.

For the data set the following is noted: Kantarjian H M et al., Blood 110:3540-3546, 2007; cited from earlier work.

For the compound `Cc1cn(-c2cc(NC(=O)c3ccc(C)c(Nc4nccc(-c5cccnc5)n4)c3)cc(C(F)(F)F)c2)cn1` [nilotinib], the “Asymptomatic hyperamylasemia, sometimes with hyperlipasemia, as toxicity” value was “observed”.
